Patent US9005670B2, “Use of histone acetyltransferase inhibitors as novel anti-cancer therapies” (The Johns Hopkins University, priority 2010, dated 2015)

Tests used:
[1] = test system: histone H3 and H4 acetylation in C3H 10T1/2 mouse fibroblasts; assay: histone acetylation Western blot in mouse cells; assay type: cell-based; details: 25 μM, 1-3 hours
From the text: Histones in mammalian cells show characteristic rates of turnover of acetylation, with a majority showing slower rates and a very minor fraction showing very fast turnover. This latter fraction has been associated with gene activation, and is defined by rapid hyperacetylation in the presence of deacetylase inhibitors such as Trichostatin A (TSA). In addition to SDS gels (FIG. 9A), Acid-Urea gels (AU, FIG. 9B) were used, on which loss of a positive charge upon lysine acetylation retards migration, producing a ladder of bands corresponding to integral changes in acetylation.
C3H 10T1/2 mouse fibroblasts were grown in DMEM with 10% FCS at 37° C. with 5% CO2. Confluent cultures were rendered quiescent in DMEM with 0.5% FCS for 18-20 h prior to treatment. […] Antibodies were used at the following concentrations: total H3 (1:10000; ab7834; Abcam); H4K12ac (1:2500; 06-761; Upstate). Rabbit anti-H3K9ac (1:10000) antibodies were generated in-house. Histones were isolated from cells by acid extraction, separated by SDS and acid-urea polyacrylamide gel electrophoresis and analyzed by Western blotting.

LN382 glioblastoma cells = assay: AlamarBlue growth inhibition, LN382; assay type: cell-based; details: LN382, 72 hours
Method: Dose response curves were generated using the AlamarBlue® assay (Invitrogen, Carlsbad, Calif.).
When inhibition was assessed using the AlamarBlue® assay (Invitrogen, Carlsbad, Calif.), cells were initially seeded at 500 cells per well in a 96-well plate. AlamarBlue® is a non-toxic reagent that measures cellular metabolic activity. Its main ingredient is resazurin, a non-fluorescent indicator dye that is reduced to bright red-fluorescent resorufin in metabolically active cells. AlamarBlue® was added to growth medium at 1/10 of the total volume (e.g., 20 μl in 200 μl total volume). […] Fluorescence reading was taken from the same plate every day for 5 days to ensure that the saturation point was not reached. Fluorescence intensity is proportional to the number of live cells in the plate.

[2] = target: T1, MOZ histone acetyltransferase (Homo sapiens, UniProt Q92794); assay: MOZ direct radioactive HAT assay; assay type: biochemical; details: 10 μM compound; read-out: Percent inhibition of acetyltransferase, Moz
T1 construct: made in house
Method: PCAF reactions were performed in 100 mM HEPES, pH 7.9, and contained 200 μM TPP, 5 mM MgCl2, 1 mM DTT, 50 mM NaCl, 0.05 mg/mL BSA, 200 μM NAD, 2.4 mM α-KG, 30 μM acetyl-CoA, 0.037 units α-KGDH, 3.3% DMSO, and 10 μM inhibitor. Reactions took place at 30° C. Reactions were initiated by addition of 10 nM PCAF and were followed at 340 nm over the linear portion of the curve below 10% turnover. AANAT reactions were performed in 100 mM NH4 OAc, pH 6.8, and contained 200 μM TPP, 5 mM MgCl2, 1 mM DTT, 50 mM NaCl, 0.05 mg/mL BSA, 200 μM NAD, 2.4 mM α-KG, 200 μM AcCoA, 0.1 units α-KGDH, 3.3% DMSO, and 10 μM inhibitor. Reactions took place at 25° C. Reactions were initiated with addition of 65 nM AANAT, and followed at 340 nm, as above. Percent inhibition values were compared to those with p300, which were repeated using the protocol given above. […]
HAT assays with yeast GCN5, SAS complex, MOZ, and Rtt109/Vps75 complex used the direct radioactive assay described above. […] The amount of enzyme used in each assay was estimated by comparing Coomassie Blue staining of samples with bovine serum albumin standards, analyzed by SDS-PAGE. […] The rate of ^14C-incorporation into histone H3 was quantified by autoradiography. […]

WM983A melanoma cells = assay: cell cycle analysis, propidium iodide FACS; assay type: cell-based, human; details: 48 hours
Method: The degree of growth arrest observed in these experiments corresponds with the decrease in ^3H-thymidine incorporation described above.
Cells treated with C646 or DMSO were stained with propidium iodide (PI). Briefly, equal number of cells (greater than 10 6) in 0.5 ml PBS were fixed in 70% ethanol for at least 2 h at 4° C. A stock staining solution containing 10 ml of 0.1% Triton X-100 in PBS, 400 μl of RNase cocktail (equivalent of −200 units of RNase A) (Ambion), and 200 μl of 1 mg/ml PI was prepared. Fixed cells were spun at 200 g for 5 min (Beckman Coulter Allegra® X-12R, with an SX4750A rotor), re-hydrated in 5 ml PBS, and spun again to remove all traces of ethanol. Cells were stained with 1 ml staining solution for 20 min at 37° C., then immediately analyzed on a FACSCalibur flow cytometer (BD Biosciences) at the Johns Hopkins Flow Cytometry Core Facility. Data acquisition and analysis were performed with the CellQuest software (BD). WinMDI 2.9 (http://facs.scripps.edu.software.html) was also used for data presentation.

NIH3T3 cells = assay: NIH3T3 cell proliferation; assay type: cell-based
Method: Cells were treated for 24 hours and proliferation was measured via ^3H-thymidine incorporation pre- and post-treatment. Data for each cell line were normalized to ^3H counts measured pre-treatment. […] Ac-DDDD-Tat is a control peptide for Lys-CoA-Tat. WM35, WM983A, and 1205Lu are melanoma cell lines representing three stages of cancer progression: radial, vertical, and metastatic, respectively.

T1 sequence (Q92794 497-780 limits assumed): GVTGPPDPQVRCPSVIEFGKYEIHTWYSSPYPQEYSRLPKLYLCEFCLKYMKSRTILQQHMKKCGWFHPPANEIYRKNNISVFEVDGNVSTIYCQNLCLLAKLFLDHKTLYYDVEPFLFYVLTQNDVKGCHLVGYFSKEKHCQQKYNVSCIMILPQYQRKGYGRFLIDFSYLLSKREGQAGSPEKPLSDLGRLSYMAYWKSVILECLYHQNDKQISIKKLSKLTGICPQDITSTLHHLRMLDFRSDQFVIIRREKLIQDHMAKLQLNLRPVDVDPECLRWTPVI

Question: What does the source list for `CC1=NN(c2ccc(C(=O)O)cc2)C(=O)C1=Cc1ccc(-c2cc(C)c(C)cc2[N+](=O)[O-])o1` [Compound C646, 4-(4,5-dihydro-3-methyl-4-((5-(4,5-dimethyl-2-nitrophenyl)furan-2-yl)methylene)-5-oxopyrazol-1-yl)benzoic acid]?
Answer: basal acetylation levels of H3 and H4 [1]: slightly diminished; TSA-inducible acetylation of histones H3 and H4 ([1]; TSA 33 nM final 30 min): virtually completely inhibited; IC50 (LN382 glioblastoma cells): 35.5 µM; inhibition at 10 µM [2]: < 10%; cell cycle distribution (WM983A melanoma cells): decreased the number of cells in S and G2 phase; effect on cell proliferation (NIH3T3 cells): does not have a significant inhibitory effect
